Source: EP4574175A1, “PRODRUG FOR ANTI-AGING RELATED DISEASES AND USE METHOD THEREFOR” (BEIJING SUNCELL BIO-MEDICAL CO., LTD., priority 2022, dated 2024)

Tests used:
[1] = target: T1, E. coli-derived β-galactosidase (Escherichia coli, UniProt P00722); experiment: In vitro enzymatic hydrolysis reaction monitored by HPLC; assay type: biochemical; details: 10 µM, PBS pH 7.3, 37°C, 6 hours
T1 construct: purchased Sigma
Protocol: The in vitro enzymatic hydrolysis reaction was carried out using E. coli-derived β-galactosidase (Sigma) in PBS solution (0.01 M, pH 7.3) at a reaction concentration of 10 µM for both A13 and A13bG, and for 6 hours at 37°C after the addition of β-galactosidase (10 U/µM). The hydrolysis reaction was monitored by the high performance liquid chromatography (HPLC). The compound A13 and the prodrug A13bG without enzyme reaction were analyzed by HPLC at the same conditions as the references. The chromatographic column model: Waters Acquity BEH C4, the conditions: 0.04 ml/min, (water (0.1% acetic acid)): the acetonitrile gradient elution: 98:2 1 min, 5:95 13 min, 5:95 18 min, 2:98 20 min.

[2] = test system: mouse model of Bleomycin-induced pulmonary fibrosis; experiment: Bleomycin-induced pulmonary fibrosis mouse model; assay type: in vivo, C57 mice; details: A13 2 mg/kg, A13bGa1 5 mg/kg i.p.
Protocol: All drugs were mixed in 85% physiological saline, 5% DMSO (Sigma, D8418) and 10% Solutol HS 15 (Sigma, 42966), and administered to mice by intraperitoneal (i.p.) injection. To treat the bleomycin-injured young mice, A13 (2 mg/kg), A13bGa1 (5 mg/kg), or an empty vehicle control was administered three consecutive days per week for four weeks. A1331852 (abbreviated as A13) was purchased from MCE.
Bleomycin was purchased from Selleck. […]. Drug treatment was initiated four days after modelling, and the drug was administered three consecutive days per week for four consecutive weeks, after which the mice were executed for material collection.
All animals (including those found dead, dying, and euthanised) were autopsied, and the lung tissues were preserved. The lungs were separated, the fat and other tissues were removed, the surface fluid was absorbed using a filter paper, and the whole lungs were weighed (those found dead, dying, and euthanised) for calculation of the lung weight index. The right lung and bronchiole were fixed in 10% neutral buffered formalin solution, embedded in paraffin, sectioned, prepared into slices, and stained with HE for a histopathological and morphological observation of the lung. The degree of the lesions such as the inflammatory cell infiltration in the lung tissue were graded according to a 4-grade classification (slight, mild, moderate, severe) using a standard terminology for diagnosis and classification. The left lung tissue was clipped and stored temporarily below -60°C. Lung weight index(%) = lung weight/body weight × 100%. [formula]
Masson trichrome stain kit (Solarbio, G1340) was used to detect fibrosis in the lung tissue. The formalin-fixed, and paraffin-embedded lung sections were dewaxed with xylene, and then rehydrated with 100% alcohol, 95% alcohol and distilled water. The sections were then stained according to the manufacturer's instructions. Afterwards, the sections were rapidly dehydrated with 95% alcohol and 100% alcohol, cleaned with xylene and covered with the coverslips. […]

[3] = test system: mouse model of oxygen-induced retinopathy; experiment: Oxygen-induced retinopathy mouse model; assay type: in vivo, C57BL6/J mice; details: single intravitreal injection on postnatal day 12, 50 ng and 100 ng, vs vehicle, IB4 staining at P17
Excerpt: Neonatal C57BL6/J mice were exposed to a 75% hyperoxia chamber (Shanghai Tow-Int Tech Co., Ltd., Ox-100HE) from the 7th to the 12th day after birth, together with the surrogate ICR female mice, and the mice were removed and placed in a normal air environment for feeding after 12 days. Hypoxia-induced abnormal vasoproliferative lesions persisted in the retina of the neonatal mice after they were fed under a hyperoxic condition and then transferred to a normoxic condition. This mouse lesion model mimics the retinal lesion characteristic of some human vision-related diseases, such as proliferative diabetic retinopathy.
Mice on postnatal day 12 were treated with the intravitreal administration of A13bGa1 or vehicle control in each eye of each mouse. […]
The extracted eyeballs of mice were firstly fixed with 4% paraformaldehyde for 1 hour at room temperature. The retina was carefully detached using the micro ophthalmic scissors and the micro forceps, and then placed in the pre-prepared fluorescence-labelled […] IB4 (Vector, FL-1201) staining solution, and stained overnight at 4 degrees Celsius away from light. Retinal sections were made after the completion of staining, and photographed using a confocal fluorescence microscope (Leica, TCS-SP8). Retinal microvascular stained sections were analyzed for the ischaemic areas and the abnormal neovascular areas using ImageJ (NIH, USA).

[4] = Plasma metabolic stability; assay type: in vitro ADME, human; details: Huamn plasma, 10 µM, 120 minutes
Protocol: (§1) Termination of the reaction was accomplished by the addition of 3x volume of acetonitrile and centrifugation at 16000 g for 20 minutes. The supernatant was taken for a LC-MS/MS analysis. The chromatographic column: Waters XSelect HSS T3; the flow rate: 500 µL/min; the eluent: A, water (0.1% formic acid); B, acetonitrile (0.1% formic acid); the gradient elution: 0-1.5 min, 5% B, 1.5-9 min, 5%-80% B, 9-12 min, 80%-100% B, 12-14 min, 100% B, 14-14.3 min, 100%-5% B, 14.3-15 min, 5% B.

[5] = Plasma metabolic stability; assay type: in vitro ADME; details: 10 µM, 120 minutes; for The peak area after normalisation at minute 120, peak 1 oxidative dehydrogenation: metabolite peak
Protocol: as §1

[6] = Hepatic microsomal metabolic stability
[7] = Hepatic microsomal metabolic stability; remark: listed apart in the source
[8] = Hepatic microsomal metabolic stability; remark: listed apart in the source
[9] = test system: senescent HEF, HELF, BJ, A549, HUVEC and MRC5 cells; experiment: Cell viability test (CCK-8) on induced senescent cell models, A13 vs A13bGa1; details: Figures 3B-3G
Protocol: Briefly, the human embryonic skin tissues and the fetal lung tissues obtained from the aborted tissues with the patient's informed consent were minced with the forcep and incubated in 1 mg/ml collagenase IV at 37°C for 1-2 hours. After the enzyme treatment, the cells were collected by centrifugation and resuspended in HEF medium (Dulbecco's modified Eagle medium (DMEM, Gibco) containing 10% fetal bovine serum (FBS, Ausbian), 1% GlutaMAX (Gibco), 1% non-essential amino acids (NEAA, Gibco) and 1% penicillin/streptomycin (Gibco). Gibco). Cells were plated on the 10 cm tissue culture dishes and grown in 10% FBS DMEM. […] They were passaged and cryopreserved according to Lonza's method. A549 cells, BJ cells and MRC5 cells were purchased from ATCC and cultured in DMEM medium containing 10% fetal bovine serum (FBS, Ausbian), and 1% penicillin/streptomycin (Gibco).
Cell Counting Kit-8 (CCK-8) assay was used to assess the cell viability. The senescent and non-senescent cells or chondrocytes were seeded into the 96-well plates and cultured overnight. The cells were then treated with control (0.05% DMSO) or different concentrations of the drug to be tested. […] Absorbance was measured at the wavelength of 450 nm.

T1 sequence (P00722 2-1024): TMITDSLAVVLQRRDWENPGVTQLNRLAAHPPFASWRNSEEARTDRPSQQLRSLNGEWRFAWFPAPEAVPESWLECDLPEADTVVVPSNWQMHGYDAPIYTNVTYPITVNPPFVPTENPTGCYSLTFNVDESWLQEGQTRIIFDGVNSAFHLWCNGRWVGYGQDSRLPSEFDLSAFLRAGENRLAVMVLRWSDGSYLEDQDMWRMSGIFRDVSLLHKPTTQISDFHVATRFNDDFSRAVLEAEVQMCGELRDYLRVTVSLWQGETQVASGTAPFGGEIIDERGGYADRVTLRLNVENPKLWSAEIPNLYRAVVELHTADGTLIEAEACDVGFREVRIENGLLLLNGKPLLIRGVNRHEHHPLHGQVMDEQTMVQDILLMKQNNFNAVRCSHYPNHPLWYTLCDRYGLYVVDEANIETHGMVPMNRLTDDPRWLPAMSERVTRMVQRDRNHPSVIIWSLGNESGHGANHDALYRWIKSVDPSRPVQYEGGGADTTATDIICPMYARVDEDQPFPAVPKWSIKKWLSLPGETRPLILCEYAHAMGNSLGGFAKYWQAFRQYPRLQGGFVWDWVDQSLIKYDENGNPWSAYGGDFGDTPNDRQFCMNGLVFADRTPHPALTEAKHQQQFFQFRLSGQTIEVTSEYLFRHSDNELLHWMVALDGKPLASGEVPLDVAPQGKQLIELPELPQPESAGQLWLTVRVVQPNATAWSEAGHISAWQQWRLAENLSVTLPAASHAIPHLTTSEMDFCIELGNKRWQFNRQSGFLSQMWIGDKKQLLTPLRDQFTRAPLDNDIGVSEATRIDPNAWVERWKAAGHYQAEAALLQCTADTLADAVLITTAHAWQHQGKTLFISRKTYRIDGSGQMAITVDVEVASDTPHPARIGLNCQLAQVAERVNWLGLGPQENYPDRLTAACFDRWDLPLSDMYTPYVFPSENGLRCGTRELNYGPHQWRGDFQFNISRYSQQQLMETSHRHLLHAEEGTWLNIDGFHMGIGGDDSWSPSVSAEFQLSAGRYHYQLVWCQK

In the case of Cc1c(-c2ccc(N3CCc4cccc(C(=O)Nc5nc6ccccc6s5)c4C3)nc2C(=O)OCc2ccc(O[C@@H]3O[C@H](CO)[C@H](O)[C@H](O)[C@H]3O)c([N+](=O)[O-])c2)cnn1CC12CC3CC(CC(C3)C1)C2 [A13bGa1], the “hydrolysis by β-gal enzyme” value [1] is reported as “hydrolysed under the action of β-gal enzyme to release the parent compound A13”, the “pathological manifestations of the pulmonary fibrosis (Masson staining)” value [2] is reported as “improved” and the lung index ([2]; 3 consecutive days per week for 4 weeks) is reported as “recovered to the normal level”. The “inflammation and consolidation of the mouse lungs (pathological sections)” value ([2]; HE staining) was “significant improvement”, the “area of the abnormal neovascular area” value [3] was “significantly reduced” and the “area of the ischemic lesion area of the retina center” value [3] was “significantly reduced”. For the same compound, the “The peak area after normalisation at minute 120, Initial drug A13bGa1” value [4] was 99.93%, the “The peak area after normalisation at minute 120, peak 1 oxidative dehydrogenation” value ([4]; metabolite peak) was 0.07% and the “The peak area after normalisation at minute 120, Initial drug A13bGa1” value ([5]; Canine plasma) was 99.52%. The “The peak area after normalisation at minute 120, Initial drug A13bGa1” value ([5]; Monkey plasma) was 99.96%, the “The peak area after normalisation at minute 120, Initial drug A13bGa1” value ([5]; Mouse plasma) was 99.96% and the “The peak area after normalisation at minute 120, Initial drug A13bGa1” value ([5]; Rat plasma) was 99.87%. The “The peak area after normalisation at minute 120, peak 1 oxidative dehydrogenation” value ([5]; Canine plasma) was 0.48%, the “The peak area after normalisation at minute 120, peak 1 oxidative dehydrogenation” value ([5]; Monkey plasma) was 0.04% and the “The peak area after normalisation at minute 120, peak 1 oxidative dehydrogenation” value ([5]; Mouse plasma) was 0.04%. The “The peak area after normalisation at minute 120, peak 1 oxidative dehydrogenation” value ([5]; Rat plasma) was 0.13%, the CLint scaled [6] was 17.9 mL/min/kg and the “The hepatic extraction ratio (E)” value ([6]; human) was 0.86. The “The hepatic extraction ratio (E)” value ([7]; Canine) was 0.70, the CLint scaled at 1 µM ([7]; dog, microsomes) was 21.7 mL/min/kg and the microsomal CLint at 1 µM ([7]; dog, microsomes) was 29.3 µL/min/mg. For the same compound, the “The hepatic extraction ratio (E)” value ([8]; Rat) was 0.34, the CLint scaled at 1 µM ([8]; rat, microsomes) was 18.7 mL/min/kg and the microsomal CLint at 1 µM ([8]; rat, microsomes) was 15.8 µL/min/mg. The “overall killing activity on the senescent cells compared with parent compound” value [9] was “somewhat reduced compared with that of the parent compound A13” and the “killing of the senescent cells” value ([9]; skin-derived fibroblasts, lung-derived cells, vascular endothelial-derived cells) was “highly efficient and selective in killing the senescent cells”.
